Data set [1] relates to human cells. Conditions: requires long (>10 hour) pre-incubation of cells with compound; cited from earlier work.
The nature of data set [2]: Glutathione stability / reactivity experiment. It counts as physicochemical. The note with it: 37 °C, DMSO, five-fold molar excess of glutathione, HPLC, up to 24 hours.
Data set [3] concerns the target T1, human RAD51 protein (Homo sapiens, UniProt Q06609).
T1 sequence (Q06609 1-339): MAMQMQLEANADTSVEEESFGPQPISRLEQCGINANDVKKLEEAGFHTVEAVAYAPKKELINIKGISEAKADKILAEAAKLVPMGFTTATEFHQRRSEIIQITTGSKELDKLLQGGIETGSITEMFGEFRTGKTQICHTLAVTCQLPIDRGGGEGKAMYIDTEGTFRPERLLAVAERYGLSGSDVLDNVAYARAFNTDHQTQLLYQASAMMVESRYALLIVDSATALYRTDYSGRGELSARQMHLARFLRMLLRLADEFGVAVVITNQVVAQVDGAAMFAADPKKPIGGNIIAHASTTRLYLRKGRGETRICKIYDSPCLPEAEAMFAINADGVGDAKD
The data set can be described thus: FP-based DNA binding assay. The note with it: compound 59 μM, 0.23 μM RAD51 (Figure 2B).

In the next data set the test system is HEK293 cells. The data set can be described thus: Sensitization of cells to MMC. It counts as cell-based, human. The note with it: HEK293, varying MMC 24 hours then compound 24 hours (Figure 4).
Data set [4] has as its system HR repair in HEK293 cells. Kind of data set: HR repair efficiency, DR-GFP reporter. It counts as cell-based, human. Conditions: 24 hours.
Data set [5] has as its system single-strand annealing (SSA) in HEK293 cells. The data set can be described thus: SSA repair efficiency, SA-GFP reporter. It counts as cell-based, human. The note with it: 24 hours.
Data set [6] addresses T1, human RAD51 protein. Kind of data set: DNA binding competition. Conditions: 10 μM compound prior to washing (Figure 2C).
Data set [7] concerns human cells. The note with it: cited from earlier work.
The mark [8] stands for this setting: 60 μM, compared with 1 at 20 μM.

The values that follow come from PMC3619390 (Journal of medicinal chemistry, 2012).

Take `O=c1c2ccccc2nc(/C=C/c2cccnc2)n1Cc1ccccc1` [B02]: the “sensitization of cells to cross-linking chemotherapeutic drugs” value with human cells [1] is recorded as “does successfully sensitize cells”.

Consider `COc1ccc(C2=C(N3CCOCC3)C(=O)N(c3ccc(Cl)c(Cl)c3)C2=O)cc1` [7a, 1-(3,4-dichlorophenyl)-3-(4-methoxyphenyl)-4-morpholino-1H-pyrrole-2,5-dione], for which the reactivity with glutathione entry in data set [2] is “no reactivity”. Moreover, the “time dependence of inhibition of RAD51 DNA binding activity” value on human RAD51 protein [3] is “did not observe any time-dependent increase”. In addition, the “sensitization of cells to MMC” value with HEK293 cells is on record as “significant sensitization of cells”. In addition, the “effect on HR efficiency” value in data set [4] (setting [8]) was “very similar effects”. Moreover, in data set [5] (setting [8]), the “effect on SSA efficiency” value is “very similar effects”.

As to `O=C1C(Cl)=C(N2CCOCC2)C(=O)N1c1ccc(Cl)c(Cl)c1` [compound 1], the “RAD51 DNA binding activity after compound treatment on beads and washing” value on human RAD51 protein [6] is “significantly inactivated”. The “time dependence of inhibition of RAD51 DNA binding activity” value at human RAD51 protein [3] is recorded as “time-dependent”. Also, the “sensitization of cells to MMC” value with HEK293 cells is “significant sensitization of cells”. For the same compound, the “effect on HR efficiency” value in data set [4] (20 μM) is given as “inhibition of HR”. Moreover, in data set [5] (20 μM), the “effect on SSA efficiency” value is reported as “stimulation of SSA”.

Regarding `C[C@@]12CCC(=O)c3coc(c31)C(=O)c1cc3c(cc12)C(=O)C=CC3=O` [halenaquinone], in the data set on human cells [7], the “sensitization of cells to ionizing radiation” value is on record as “not capable of sensitizing cells to ionizing radiation”.
